# Measured values as given in patent US9062308B2, “Compositions and methods for treatment of tamoxifen resistant breast cancer” (The Johns Hopkins University, priority 2011, dated 2015).
# What was measured:
# [1] = system: TGFα and HB-EGF; experiment: TGFα and HB-EGF expression in MCF-10A-B7 cells under EGFR inhibition; assay type: cell-based
# [2] = system: LTED cells; details: MCF-7-LTED cells; cited from earlier work
# [3] = system: EGFR, p44/42 MAPK and ERα phosphorylation; experiment: EGFR signaling in estrogen deprived MCF-7-B7 cells treated with TAM; assay type: cell-based
# From the text: These observations indicate that under the treatment conditions, nongenomic ERα action occurred to activate EGFR signaling.
# [4] = system: MCF-7-Vec cells; experiment: TAM treatment in culture, apoptosis and cell viability, MCF-7-Vec cells; assay type: cell-based; details: MCF-7-Vec cells in culture
# [5] = system: MCF-7-B7 xenografts; experiment: Xenograft analysis, tumor growth of MCF-7-B7 cells implanted s.c. in athymic mice; assay type: in vivo; details: MCF-7-B7 xenografts in immunodeficient mice; TAM 83.3 μg/day; no exogenous estrogen supplement
# Method: (§1) FIG. 3 depicts evidence that HOXB7 promotes TAM resistance. (3A) Immunoblot analysis of Phospho-EGFR, EGFR, P-MAPK, MAPK and HOXB7 expression levels in MCF-7-Vec and MCF-7-HOXB7 cells. (3B) Tumor growth curve of MCF-7-HOXB7 cells implanted s.c. in athymic Swiss female mice and treated with either vehicle or TAM (83.3 μg/day), in the absence of an exogenous estrogen supplement. […] (3D) Semi quantitative RT-PCR analysis of mRNA expression levels of TGFα, HB-EGF and Amphiregulin in HOXB7 expressing MCF-7 cells and their vector controls (left); Amphiregulin or TGFα mRNA expression in MCF-7-vec and MCF-7-B7 cells treated with either scrambled sequence siRNA or ERα-specific siRNA (right) (3E) Diagram representing the HOXB7 binding sites in EGFR promoter region. MCF-7 cells were transfected with pcDNA3-Flag-HOXB7 and Vector plasmid, ChIP was performed by IP with either anti-Flag M2 antibody or control IgG. (3F) Luciferase activity of deletion/truncation constructs of the EGFR promoter, with (solid box) and without (slashed box) transfected HOXB7 plasmid, to map minimal region necessary for activation by HOXB7.
# Xenograft Analysis. […] At necropsy, primary tumors, liver, lung and spleen were evaluated for the presence of macroscopic tumors. […]
# [6] = system: MCF-7-B7 cells; experiment: Soft agar colony formation by MCF-7-B7 cells; assay type: cell-based
# Method: as §1
# [7] = system: MCF-7-TMR cells; experiment: Soft agar colony formation in MCF-7-TMR cells; assay type: cell-based
# Method: (§2) (2A) Immunoblot analysis of Phospho-EGFR (Y1068), EGFR, Phospho-MAPK, MAPK, Phospho-ERα (S118), ERα, and HOXB7 expression in MCF-7 cells treated long-term with either vehicle or 0.1 μM TAM (TMR1) or 1 μM TAM (TMR2). (2B) Immunoblot analysis of EGFR, Phospho-MAPK, MAPK and HOXB7 expression in MCF-7-TMR cells and BT474 transfected with either scrambled sequence siRNA or HOXB7-specific siRNA. (2C) Soft agar colony formation in BT474 cells and MCF-7-TMR cells transfected with either scrambled sequence siRNA or HOXB7-specific siRNA treated with Vehicle or 1 μM TAM.
# (§3) HOXB7 in the acquisition of anti-estrogen resistance. Because of the observation of a striking similarity in phenotype between prolonged endocrine therapy primed TAM-resistant models and our HOXB7 overexpressing cells, the hypothesis that HOXB7 is a mediator of anti-estrogen resistance was investigated. MCF-7 cell lines were derived, and exposed to either vehicle or TAM (0.1 μM or 1 μM) for over 12 months (designated MCF-7-TMR1 or MCF-7-TMR2 respectively).
# [8] = system: HOXB7 mRNA; experiment: Real time quantitative PCR analysis of HOXB7 mRNA levels; assay type: cell-based
# Method: (4A) Real time quantitative PCR analysis of HOXB7 mRNA levels in MCF-7 cells. Cells were incubated in estrogen deprived condition for 72 hours [DMEM phenol red-free medium containing 5% Dextran charcoal stripped serum (DCC-FBS)]; the cells were then treated with 0.1-100 nM estrogen (E2); […]; Inset: Semi-quantitative RT-PCR analysis of HOXB7 mRNA following 1 uM TAM treatment for 24 hour. (4B) Real time quantitative PCR analysis of HOXB7. mRNA levels in MDA-MB-231 and MDA-MB-453 cells were transiently transfected with ERα expression plasmid and vector control for 48 hours. ERIN, a ERα overexpressed cell line, was used with MCF10A as a control. (4C) Immunoblot analysis of HOXB7 and ERα expression levels in transient transfectants of MDA-MB-231-ERα.
# Real-time PCR of HOXB7 expression. HOXB7 gene expression was quantitated by Taqman real-time quantitative PCR in triplicate in 96-well plate using an ABI 7900HT (Applied Biosystems) using cDNA derived from our previously published cohort of tumor samples (Cancer research 62(3):827-834). The sequences of the HOXB7 PCR primer pairs and fluorogenic MGB probe (5′ to 3′), respectively, are: AAAACCTACCACTCGCGTGTTC (SEQ ID NO: 5), GGA CGG GAA GCA AGA AGC A (SEQ ID NO: 6), and VIC-CAA GCG CCT GGC TG (SEQ ID NO: 7).
# [9] = system: EGFR, MAPK, ERα and HOXB7; experiment: Immunoblot analysis of MCF-7 cells treated long-term with TAM; assay type: cell-based
# Method: as §2, §3
# [10] = system: MCF-7-B7 cells; experiment: TAM treatment in culture, apoptosis and cell viability, MCF-7-B7 cells; assay type: cell-based; details: MCF-7-B7 cells in culture
# [11] = system: ERα-positive breast cancer; details: patients with acquired resistance who progress on TAM; cited from earlier work
# [12] = system: EGFR, p44/42 MAPK, ARG and TGFα; experiment: EGFR activity and EGFR ligand levels in MCF-7-B7 cells after ER downregulation; assay type: cell-based
# Method: as §1
# [13] = system: BT474 cells; experiment: Soft agar colony formation in BT474 cells; assay type: cell-based; details: 1 μM gefitinib and 1 μM TAM
# Method: as §2
smiles,measurement,setting,value
COc1cc2ncnc(Nc3cccc(Cl)c3)c2cc1OC [AG1478],elevated expression of TGFα and HB-EGF,[1],significantly abrogated
"CC/C(=C(\c1ccccc1)c1ccc(OCCN(C)C)cc1)c1ccccc1 [TAM, tamoxifen]",sensitivity of LTED cells,[2],refractory
same,"active EGFR, p44/42 MAPK activity and ERα phosphorylation","[3]; MCF-7-B7 cells in estrogen deprived conditions, TAM for 24 hours, vs MCF-7-Vec cells","significantly higher levels of active forms of EGFR, increased p44/42 MAPK activity and ERα phosphorylation"
same,"phosphorylation of EGFR, p44 MAPK and ER","[3]; estrogen deprived MCF-7-B7 cells, 1 μM TAM for 0-30 minutes, data not shown","elevated phosphorylation of EGFR, activation of p44 MAPK, and ER phosphorylation at Serine 118"
same,apoptosis and cell viability,[4],increased apoptosis and decreased cell viability
same,tumor growth response to TAM,[5],failed to respond to the inhibitory effects of TAM
same,colony formation in soft agar in the presence of tamoxifen,[6]; TAM 1 μM,at frequencies similar to vehicle treated cells
same,resistance to TAM treatment by colony formation assay,"[7]; MCF-7-TMR1 cells (0.1 μM TAM for over 12 months), data not shown",significant resistance to TAM treatment
same,HOXB7 mRNA levels,"[8]; MCF-7 and T47D cells, tamoxifen in medium containing 10% FBS",increased
same,downregulation of HOXB7 expression by estradiol,[8]; tamoxifen added to estradiol,abrogated
same,HOXB7 expression,[9]; MCF-7-TMR cells (long-term TAM),upregulated
same,levels of HOXB7 expression over time,"[9]; MCF-7 cells, 0.1 μM TAM, 0, 2, 4, 6 months, data not shown",progressively increasing levels of HOXB7 expression
same,"expression of EGFR, activated MAPK and ERα, total ERα","[9]; MCF-7 cells, TAM 0.1 μM or 1 μM for over 12 months","elevated expression of EGFR and activated MAPK and ERα, but no significant change of total ERα"
same,"sensitivity to TAM treatment (apoptosis, cell viability)",[10],minimally sensitive
"C[C@]12CC[C@@H]3c4ccc(O)cc4CC[C@H]3[C@@H]1CC[C@@H]2O [estradiol, 17β-estradiol]",HOXB7 expression,[8]; estradiol stimulation in estrogen-deprived growth conditions (5% charcoal stripped serum),significantly reduced
C[C@]12CC[C@@H]3c4ccc(O)cc4C[C@@H](CCCCCCCCC[S+]([O-])CCCC(F)(F)C(F)(F)F)[C@H]3[C@@H]1CC[C@@H]2O (stereo partly shown) [fulvestrant],sensitivity of LTED cells,[2],sensitive
same,patients who respond,[11],20%
same,EGFR and p44/42 MAPK activity,[12]; HOXB7 overexpression (MCF-7-B7 cells),modestly reduced increases in EGFR and p44/42 MAPK activity
same,levels of the autocrine/paracrine EGFR ligands (ARG and TGFα),[12]; MCF-7-B7 cells,significant reduction
COc1cc2ncnc(Nc3ccc(F)c(Cl)c3)c2cc1OCCCN1CCOCC1 [gefitinib],"re-sensitization to TAM treatment, soft agar colony formation",[6]; 1 μM gefitinib with TAM 1 μM,significantly re-sensitized them to TAM treatment
same,"effect on TAM action, soft agar colony formation","[7]; MCF-7-TMR cells, 1 μM gefitinib and 1 μM TAM",dramatically converted TAM to a potent antagonist
same,"effect on TAM action, soft agar colony formation",[13],dramatically converted TAM to a potent antagonist
